Test results as given in paper PMC7582373, “Bis-Lactam Peptide [i, i+4]-Stapling with α-Methylated Thialysines” (Molecules, 2020).
*1 amine or outer side, *2 acyl side, *3 side chain or, on linkers, in order; H or OH if unused. Where a SMILES comes first, the peptide text is derived from it. Bridges are numbered along the chain shown (N, C = ends). [ ]: non-standard residue; d: D form. X1 = O=C(Cc1ccc(CC(=O)NCC[*:2])cc1)NCC[*:1]; αMeC = C[C@](N)(CS)C(=O)O

Experiments:
circular dichroism = conditions: water; pH ns; 25 °C; 25 and/or 50 uM
in vitro = in vitro ADME; conditions: Streptomyces griseus, isolated enzyme pronase, pH 7.3
Excerpt: We further compared the proteolytic stability of the L-α-methyl-thialysine-stapled peptide 5 and the L-thialysine-stapled peptide 6 by employing pronase as the proteolytic enzyme preparation in a proteolysis experiment. Of note, pronase is a mixture of a variety of different proteases/peptidases and therefore has a very broad substrate specificity. […] This observed difference in the proteolytic stability of 5 and 6 is in the same direction of change with the % α-helicity of 5 and 6 (see above), which would be consistent with the notion that an enhanced % α-helicity would improve the proteolytic stability of a stapled peptide, which was also supported previously with the peptides stapled with other stapling systems such as the all-hydrocarbon-stapled peptides.
The following materials were obtained from commercial sources for compound synthesis/purification and the pronase digestion assay, and were used as received. Sigma-Aldrich China (Shanghai, China): N-methylmorpholine (NMM), trifluoroacetic acid (TFA), N,N-dimethylformamide (DMF), N-(allyloxycarbonyloxy)succinimide (Alloc-OSu), triethylamine, Trizma, the pronase from Streptomyces griseus; TCI Shanghai: para-phenylenediacetic acid, 2-(tert-butoxycarbonylamino)ethyl bromide, 1,8-diazabicyclo[5.4.0]undec-7-ene (DBU), L-cysteine, N-(9-fluorenylmethoxycarbonyloxy) succinimide (Fmoc-OSu), phenylsilane (PhSiH3), tetrakis(triphenylphosphine)palladium (Pd(PPh3)4); Alfa Aesar China (Shanghai, China): 2-(1H-benzotriazole-1-yl)-1,1,3,3-tetramethylaminium hexafluorophosphate (HBTU), 2-(7-Aza-1H-benzotriazole-1-yl)-1,1,3,3-tetramethyluronium hexafluorophosphate (HATU), N-hydroxybenzotriazole (HOBt), phenol, thioanisole, ethanedithiol; Honeywell China (Shanghai, China): acetonitrile, dichloromethane (DCM), methanol, ethyl acetate; Sinopharm Chemical Reagent Co., Ltd. (Shanghai, China): acetic anhydride, diethyl ether, semi-preparative thin-layer chromatography (TLC) silica gel plate (HSGF254, 20 × 20 cm, 0.4–0.5 mm); Shanghai Plus Bio-Sci & Tech Co., Ltd. (Shanghai, China): Rink amide 4-methylbenzhydrylamine (MBHA) resin; SyncoZymes Co., Ltd. (Shanghai, China): D-2-methyl-cysteine hydrochloride; Fisher Scientific Worldwide Co., Ltd. (Shanghai, China): L-2-methyl-cysteine hydrochloride.
This experiment followed the protocol described previously. Fifty (50) µL of an 160 μM solution of a peptide (5, 6, 7, or 8) in ddH2O was thoroughly mixed with 50 μL of an 8 ng/μL solution of pronase in 100 mM Tris•HCl (pH 7.3), and the resultant solution was incubated at 37 °C until quenched at different time points (0 min, 4 min, 7.5 min, and 15 min) with an 1.0 M solution of acetic acid in ddH2O. Twenty (20) μL of a pronase digestion solution was taken at each time point and treated immediately with 40 μL of the 1.0 M acetic acid aqueous solution, followed instantly by vigorous vortexing and centrifugation. The obtained supernatant was then injected into a C18 analytical HPLC column (0.46 × 25 cm, 5 μm), and the column was eluted at 1 mL/min with ultraviolet monitoring at 214 nm with the following gradients of ddH2O containing 0.05% (v/v) TFA (mobile phase A) and acetonitrile containing 0.05% (v/v) TFA (mobile phase B): linear increase of B from 0% to 45% in 60 min (for 5 and 6), linear increase of B from 0% to 60% in 60 min (for 7), or linear increase of B from 0% to 100% in 60 min (for 8). The integrated HPLC peak areas at different time points for a given peptide were used to estimate the percentage remaining for the peptide as the function of the digestion time.

Compound | helicity (circular dichroism) [%] | remaining at 4 min, 80 µM (in vitro) [%] | remaining at 0.125 h, 80 µM (in vitro) [%] | remaining at 0.25 h, 80 µM (in vitro) [%]
CC[C@H](C)[C@H](NC(=O)[C@H](CCC(=O)O)NC(=O)[C@H](CO)NC(C)=O)C(=O)N[C@H](C(=O)N[C@@H](CCCCN)C(=O)N[C@@H](CCC(N)=O)C(=O)N[C@@H](CCC(=O)O)C(=O)N[C@@H](CCCCN)C(=O)N[C@@]1(C)CSCCNC(=O)Cc2ccc(cc2)CC(=O)NCCSC[C@](C)(C(=O)N[C@@H](Cc2c[nH]cn2)C(=O)N[C@@H](CCCNC(=N)N)C(=O)N[C@@H](Cc2c[nH]cn2)C(=O)N[C@@H](Cc2ccc(O)cc2)C(=O)N[C@@H](CS)C(N)=O)NC(=O)[C@H](Cc2c[nH]c3ccccc23)NC(=O)[C@H](CC(C)C)NC(=O)[C@H](Cc2ccccc2)NC1=O)[C@@H](C)O | 11.8 |  |  | 
CC[C@H](C)[C@H](NC(=O)[C@H](CCC(=O)O)NC(=O)[C@H](CO)NC(C)=O)C(=O)N[C@H](C(=O)N[C@@H](CCCCN)C(=O)N[C@@H](CCC(N)=O)C(=O)N[C@@H](CCC(=O)O)C(=O)N[C@@H](CCCCN)C(=O)N[C@]1(C)CSCCNC(=O)Cc2ccc(cc2)CC(=O)NCCSC[C@@](C)(C(=O)N[C@@H](Cc2c[nH]cn2)C(=O)N[C@@H](CCCNC(=N)N)C(=O)N[C@@H](Cc2c[nH]cn2)C(=O)N[C@@H](Cc2ccc(O)cc2)C(=O)N[C@@H](CS)C(N)=O)NC(=O)[C@H](Cc2c[nH]c3ccccc23)NC(=O)[C@H](CC(C)C)NC(=O)[C@H](Cc2ccccc2)NC1=O)[C@@H](C)O | 11.1 |  |  | 
CC[C@H](C)[C@H](NC(=O)[C@H](CCC(=O)O)NC(=O)[C@H](CO)NC(C)=O)C(=O)N[C@H](C(=O)N[C@@H](CCCCN)C(=O)N[C@@H](CCC(N)=O)C(=O)N[C@@H](CCC(=O)O)C(=O)N[C@@H](CCCCN)C(=O)N[C@]1(C)CSCCNC(=O)Cc2ccc(cc2)CC(=O)NCCSC[C@](C)(C(=O)N[C@@H](Cc2c[nH]cn2)C(=O)N[C@@H](CCCNC(=N)N)C(=O)N[C@@H](Cc2c[nH]cn2)C(=O)N[C@@H](Cc2ccc(O)cc2)C(=O)N[C@@H](CS)C(N)=O)NC(=O)[C@H](Cc2c[nH]c3ccccc23)NC(=O)[C@H](CC(C)C)NC(=O)[C@H](Cc2ccccc2)NC1=O)[C@@H](C)O | 10.4 |  |  | 
CC[C@H](C)[C@H](NC(=O)[C@H](CCC(=O)O)NC(=O)[C@H](CO)NC(C)=O)C(=O)N[C@H](C(=O)N[C@@H](CCCCN)C(=O)N[C@@H](CCC(N)=O)C(=O)N[C@@H](CCC(=O)O)C(=O)N[C@@H](CCCCN)C(=O)N[C@@]1(C)CSCCNC(=O)Cc2ccc(cc2)CC(=O)NCCSC[C@@](C)(C(=O)N[C@@H](Cc2c[nH]cn2)C(=O)N[C@@H](CCCNC(=N)N)C(=O)N[C@@H](Cc2c[nH]cn2)C(=O)N[C@@H](Cc2ccc(O)cc2)C(=O)N[C@@H](CS)C(N)=O)NC(=O)[C@H](Cc2c[nH]c3ccccc23)NC(=O)[C@H](CC(C)C)NC(=O)[C@H](Cc2ccccc2)NC1=O)[C@@H](C)O [compound 5] | 10.4 | ~19.2 | ~5.6 | 
CC[C@H](C)[C@H](NC(=O)[C@H](CCC(=O)O)NC(=O)[C@H](CO)NC(C)=O)C(=O)N[C@H](C(=O)N[C@@H](CCCCN)C(=O)N[C@@H](CCC(N)=O)C(=O)N[C@@H](CCC(=O)O)C(=O)N[C@@H](CCCCN)C(=O)N[C@H]1CSCCNC(=O)Cc2ccc(cc2)CC(=O)NCCSC[C@@H](C(=O)N[C@@H](Cc2c[nH]cn2)C(=O)N[C@@H](CCCNC(=N)N)C(=O)N[C@@H](Cc2c[nH]cn2)C(=O)N[C@@H](Cc2ccc(O)cc2)C(=O)N[C@@H](CS)C(N)=O)NC(=O)[C@H](Cc2c[nH]c3ccccc23)NC(=O)[C@H](CC(C)C)NC(=O)[C@H](Cc2ccccc2)NC1=O)[C@@H](C)O [compound 6] (Ac-SEITKQEKCFLWCHRHYC-NH2; linker 9-13 via X1) | 4.4 | ~11.1 | ~4.3 | 
CC(=O)N[C@@H](CCC(=O)O)C(=O)N[C@@H](Cc1c[nH]c2ccccc12)C(=O)N[C@@H](C)C(=O)N[C@@H](CCC(=O)O)C(=O)N[C@H](C(=O)N[C@@H](C)C(=O)N[C@@H](C)C(=O)N[C@@]1(C)CSCCNC(=O)Cc2ccc(cc2)CC(=O)NCCSC[C@@](C)(C(=O)N[C@@H](C)C(=O)N[C@@H](Cc2c[nH]cn2)C(=O)N[C@@H](C)C(N)=O)NC(=O)[C@H](CC(C)C)NC(=O)[C@H](Cc2ccccc2)NC(=O)[C@H](CCCCN)NC1=O)[C@@H](C)O [compound 7] (Ac-EWAETAA[αMeC]KFL[αMeC]AHA-NH2; linker 8-12 via X1) | 13.5 | ~96.6 | ~93.3 | ~81.3
CC(=O)N[C@@H](CCC(=O)O)C(=O)N[C@@H](Cc1c[nH]c2ccccc12)C(=O)N[C@@H](C)C(=O)N[C@@H](CCC(=O)O)C(=O)N[C@H](C(=O)N[C@@H](C)C(=O)N[C@@H](C)C(=O)N[C@H]1CSCCNC(=O)Cc2ccc(cc2)CC(=O)NCCSC[C@@H](C(=O)N[C@@H](C)C(=O)N[C@@H](Cc2c[nH]cn2)C(=O)N[C@@H](C)C(N)=O)NC(=O)[C@H](CC(C)C)NC(=O)[C@H](Cc2ccccc2)NC(=O)[C@H](CCCCN)NC1=O)[C@@H](C)O [compound 8] (Ac-EWAETAACKFLCAHA-NH2; linker 8-12 via X1) | 7.9 | ~48.9 | ~35.7 | ~21.6
